≈ marks a conversion by molar mass, not a printed value. Where a SMILES comes first, the peptide text is derived from it. [ ]: non-standard residue; d: D form. The star is where a group is joined. Palmitoyl = CCCCCCCCCCCCCCCC(=O)*; Lauroyl = CCCCCCCCCCCC(=O)*; Pentanoyl = CCCCC(=O)*; AEEA = NCCOCCOCC(=O)O; βAla = NCCC(=O)O
Experiments:
[1] = system: C.krusei CCM 8271; experiment: MIC, broth microdilution; assay type: cell-based, Candida krusei; settings: C.krusei CCM 8271, 24 h
Description: (§1) Escherichia coli (PCM 2057 = ATCC 25922), Staphylococcus aureus (PCM 2054 = ATCC 25923), Staphylococcus epidermidis (PCM 2118 = ATCC 14990), Bacillus subtilis (PCM 2224 = ATCC 9799), Bacillus cereus (PCM 482 = ATCC 10702) and Pseudomonas aeruginosa (PCM 499 = ATCC 10145) were obtained from the Polish Collection of Microorganisms. Fungi strains Candida albicans (CCM 8186 = CNTC 49/64), Candida glabrata (CCM 8270 = ATCC 90030), Candida parapsilosis (CCM 8260 = ATCC 22019) and Candida krusei (CCM 8271 = ATCC 6258) were acquired from the Czech Collection of Microorganisms. S. aureus USA300 (wild type strain), the reference strain of Klebsiella pneumoniae (ATCC 13883) and clinical isolates of Pseudomonas aeruginosa (PA1, PA2) collected from nonrelated patients admitted to the Stefan Zeromski Specialist Municipal Hospital in Krakow (Poland) were kindly provided by the research group of the Department of Microbiology, Faculty of Biochemistry, Biophysics and Biotechnology, Jagiellonian University, Krakow, Poland.
(§2) Luria-Bertani broth (LB) and Sabouraud Dextrose broth (SB) (Biocorp, Poland) were used for cultivation of bacteria and fungi strains, respectively. The antimicrobial activity of the peptides were analyzed through determination of MIC (minimal inhibitory concentration) parameters according to Clinical and Laboratory Standards (CLSI) guidelines developed for aerobic bacteria and yeasts, respectively. Mueller-Hinton broth (MHB) was used as the working medium for all bacterial strains, while in the case of fungi, RPMI-1640 (with L-glutamine, without sodium bicarbonate) growth medium buffered with MOPS (morpholinepropanesulfonic acid) and supplemented with 2% glucose was used. Inoculum was prepared from freshly grown cultures of microorganisms at their exponential phase of growth. […] Plates were then incubated for 24 h at 37 °C in the case of bacteria and at 35 °C in the case of fungi. After that time, absorbance was read at 590 nm with a Perkin Elmer plate reader. Cultures without peptide were treated as positive control, while uninoculated media were defined as negative control. All measurements were run at least in triplicate.

[2] = system: C.parapsilosis CCM 8260; experiment: MIC, broth microdilution; assay type: cell-based, Candida parapsilosis; settings: C.parapsilosis CCM 8260, 24 h
Description: as §1, §2

[3] = system: B. cereus PCM 482; experiment: MIC, broth microdilution; assay type: cell-based, Bacillus cereus; settings: B. cereus PCM 482, 24 h
Description: as §1, §2

[4] = system: S. epidermidis PCM 2118; experiment: MIC, broth microdilution; assay type: cell-based, Staphylococcus epidermidis; settings: S. epidermidis PCM 2118, 24 h
Description: as §1, §2

[5] = system: P. aeruginosa PCM 499; experiment: MIC, broth microdilution; assay type: cell-based, Pseudomonas aeruginosa; settings: P. aeruginosa PCM 499, 24 h
Description: as §1, §2

[6] = system: keratinocytes (HaCaT); experiment: Cytotoxicity, MTT assay; assay type: cell-based, human; settings: 24 h; for effect on cell viability (in words): keratinocytes, 1 to 50 µg/mL
Description: (§3) Human dermal fibroblasts were obtained as previously reported from biopsies of healthy human skin of three donors undergoing a surgery. All procedures were approved by the Ethics Committee of Medicinal University of Gdansk (NKEBN/483/2011 and NKBBN/745/2019-2020). Immortalized human HaCaT keratinocytes (DKFZ Heidelberg, Germany) were obtained commercially.
(§4) Both types of cell lines were grown in Dulbecco′s Modified Eagle′s Medium (DMEM) (Sigma-Aldrich, Germany), containing […] of glucose, […] of L- glutamine, sodium pyruvate and sodium bicarbonate. Additionally, the medium was supplemented with 10% FCS (fetal calf serum, Sigma-Aldrich, Germany), 100 U/mL of penicillin and 100 μg/mL of streptomycin (Sigma-Aldrich, Germany). The cells were grown in standard culture dishes (BD, USA) in a humidified atmosphere with 5% CO2 at […], and the medium was changed every 2 days.
(§5) The fibroblasts and keratinocytes were seeded at density of 5500 cells per well into 96-well plates suspended in a medium supplemented with 10% FCS. After 24 h from seeding, the media were exchanged with serum- and antibiotic-free DMEM and tested peptides, dissolved in sterile water, which were added, yielding a final concentration ranging from 1 to 50 μg/mL. The cells were then incubated for the next 24 h. At the end of the experiment, the cells were treated with 20 μL of MTT (5 mg/mL in PBS). After 3 h of incubation in the presence of MTT dye, the DMEM medium was discarded and replaced with 6 mM HCl in isopropanol. When the purple crystals of formazan were fully solubilized, absorbance at 570 nm was read.

[7] = system: primary fibroblasts; experiment: Cytotoxicity, MTT assay; assay type: cell-based, human; settings: 24 h; for effect on cell viability (in words): fibroblasts, 1 to 50 µg/mL
Description: as §3, §4, §5

[8] = system: S. aureus (PCM 2054) biofilm; experiment: Biofilm inhibition assay (MTT); assay type: cell-based, Staphylococcus aureus; settings: S. aureus biofilm development, 24 h post-inoculation
Description: In the case of bacteria, an overnight culture of S. aureus in Tryptic Soy Broth (TSB) supplemented with 2% glucose (TSB/+G) was used to prepare inoculum for the experiments. Briefly, 5 mL of 24 h culture was centrifuged at 5000× g, washed with sterile PBS and suspended in a fresh 2 × concentrated TSB/+G. In the case of yeasts, the overnight culture of C. albicans in Sabouraud dextrose broth (SB) was used for inoculum preparation. Similar to above, 5 mL of 24 h culture was centrifuged, washed with PBS and then suspended in sterile 2 × concentrated RPMI-1640 medium (with L-glutamine, without sodium bicarbonate) supplemented with 2% glucose (RPMI-1640/+G). In both cases, the cell concentration of the inoculum was about 1 × 10^7 cells per ml.
For the determination of the inhibitory concentration that reduced biofilm development by 50% (BIC50^, expressed in µg/mL), 100 µL inoculum in 2 × concentrated RPMI-1640/+G medium (in the case of C. albicans) or 2 x concentrated TSB/+G broth (in the case of S. aureus) was transferred to each well of 96-well plates containing 100 µL of serially diluted in water tested compounds. The final concentrations of the compounds were the same as those used in MIC determination studies. The 96-well plates were then incubated for 24 h at 37 °C and 35 °C in the case of bacteria and fungi, respectively. Viability of the microorganisms in the presence of the tested compounds was analyzed by means of MTT assay.
The reduction in biofilm viability was analyzed by means of MTT assay. Briefly, 20 μL of MTT solution (5 mg/mL in PBS) was added to prewashed wells with exchanged medium (180 μL of fresh medium) wells containing bacterial/yeast biofilms. Plates were then incubated in the dark for the next 3 h at 37 °C. After that time, the medium was replaced with 6 mM HCl in isopropanol and, when the reduced MTT was fully dissolved, the plates were read at 570 nm. Activity against fully developed 24 h old biofilm was described as biofilm eradication concentration (BEC50 expressed in µg/mL), which corresponded to the concentration of the compound able to reduce 50% of biofilm viability compared with the growth control.

Structure (SMILES)	MIC100 [1]	MIC100 [2]	MIC100 [3]	MIC100 [4]	MIC100 [5]	IC50 ([6]; Keratinocytes (HaCaT), MTT)	effect on cell viability (in words) ([6]; MTT)	effect on cell viability (in words) ([7]; MTT)	IC50 ([7]; primary Fibroblasts, MTT)	BIC50 [8]	IC50 [6]	IC50 [7]
CCCCC(=O)NCCC(=O)N[C@@H](Cc1c[nH]cn1)C(=O)NCCOCCOCC(=O)N[C@H](C(=O)N[C@@H](CCCCN)C(=O)N[C@@H](CCCCN)C(=O)N[C@H](C(=O)N[C@@H](CC(C)C)C(=O)N[C@@H](CO)C(=O)N[C@@H](CCCCN)C(=O)N[C@H](C(=O)N[C@@H](CCCCN)C(=O)N[C@@H](CCCCN)C(=O)N[C@@H](CC(C)C)C(=O)N[C@@H](CC(C)C)C(N)=O)[C@@H](C)CC)[C@@H](C)CC)[C@@H](C)CC [C5-CAR-PEG-DK5] ({Pentanoyl-βAla}-H[AEEA]IKKILSKIKKLL-NH2)	>50 µg/mL	50 µg/mL (≈ 26.9 µM)	>50 µg/mL	6.25 µg/mL (≈ 3.36 µM)	>50 µg/mL	>50 µg/mL	neutral or even pro-proliferative	neutral or even pro-proliferative	>50 µg/mL	>50 µg/mL		
CCCCCCCCCCCCCCCC(=O)NCCC(=O)N[C@@H](Cc1c[nH]cn1)C(=O)NCCOCCOCC(=O)N[C@H](C(=O)N[C@@H](CCCCN)C(=O)N[C@@H](CCCCN)C(=O)N[C@H](C(=O)N[C@@H](CC(C)C)C(=O)N[C@@H](CO)C(=O)N[C@@H](CCCCN)C(=O)N[C@H](C(=O)N[C@@H](CCCCN)C(=O)N[C@@H](CCCCN)C(=O)N[C@@H](CC(C)C)C(=O)N[C@@H](CC(C)C)C(N)=O)[C@@H](C)CC)[C@@H](C)CC)[C@@H](C)CC [C16-CAR-PEG-DK5] ({Palmitoyl-βAla}-H[AEEA]IKKILSKIKKLL-NH2)	12.5 µg/mL (≈ 6.2 µM)	6.25 µg/mL (≈ 3.1 µM)	>50 µg/mL	25 µg/mL (≈ 12.4 µM)	>50 µg/mL	1 µg/mL (≈ 0.496 µM)			4 µg/mL (≈ 1.98 µM)	10 µg/mL		
CC[C@H](C)[C@H](NC(=O)COCCOCCNC(=O)[C@H](Cc1c[nH]cn1)NC(=O)CCN)C(=O)N[C@@H](CCCCN)C(=O)N[C@@H](CCCCN)C(=O)N[C@H](C(=O)N[C@@H](CC(C)C)C(=O)N[C@@H](CO)C(=O)N[C@@H](CCCCN)C(=O)N[C@H](C(=O)N[C@@H](CCCCN)C(=O)N[C@@H](CCCCN)C(=O)N[C@@H](CC(C)C)C(=O)N[C@@H](CC(C)C)C(N)=O)[C@@H](C)CC)[C@@H](C)CC [CAR-PEG-DK5] (H-[βAla]H[AEEA]IKKILSKIKKLL-NH2; N-terminus and C-terminus assumed)	3.9 µg/mL (≈ 2.19 µM)	31.3 µg/mL (≈ 17.6 µM)	>50 µg/mL	3.9 µg/mL (≈ 2.19 µM)	50 µg/mL (≈ 28.1 µM)					>50 µg/mL	>50 µg/mL	35 µg/mL (≈ 19.7 µM)
CCCCC(=O)N[C@H](C(=O)N[C@@H](CCCCN)C(=O)N[C@@H](CCCCN)C(=O)N[C@H](C(=O)N[C@@H](CC(C)C)C(=O)N[C@@H](CO)C(=O)N[C@@H](CCCCN)C(=O)N[C@H](C(=O)N[C@@H](CCCCN)C(=O)N[C@@H](CCCCN)C(=O)N[C@@H](CC(C)C)C(=O)N[C@@H](CC(C)C)C(N)=O)[C@@H](C)CC)[C@@H](C)CC)[C@@H](C)CC [Compound C5-DK5] (Pentanoyl-IKKILSKIKKLL-NH2)	25 µg/mL (≈ 16.6 µM)	3.13 µg/mL (≈ 2.08 µM)	12.5 µg/mL (≈ 8.29 µM)	0.78 µg/mL (≈ 0.517 µM)	25 µg/mL (≈ 16.6 µM)	35 µg/mL (≈ 23.2 µM)	moderately toxic	moderately toxic	20 µg/mL (≈ 13.3 µM)	6.25 µg/mL		
CCCCCCCCCCCC(=O)N[C@H](C(=O)N[C@@H](CCCCN)C(=O)N[C@@H](CCCCN)C(=O)N[C@H](C(=O)N[C@@H](CC(C)C)C(=O)N[C@@H](CO)C(=O)N[C@@H](CCCCN)C(=O)N[C@H](C(=O)N[C@@H](CCCCN)C(=O)N[C@@H](CCCCN)C(=O)N[C@@H](CC(C)C)C(=O)N[C@@H](CC(C)C)C(N)=O)[C@@H](C)CC)[C@@H](C)CC)[C@@H](C)CC [Compound C12-DK5] (Lauroyl-IKKILSKIKKLL-NH2)	3.13 µg/mL (≈ 1.95 µM)	3.13 µg/mL (≈ 1.95 µM)	12.5 µg/mL (≈ 7.78 µM)	0.78 µg/mL (≈ 0.486 µM)	12.5 µg/mL (≈ 7.78 µM)	1 µg/mL (≈ 0.623 µM)			7 µg/mL (≈ 4.36 µM)	6.25 µg/mL		

From paper PMC8269107, “Lipidation of Temporin-1CEb Derivatives as a Tool for Activity Improvement, Pros and Cons of the Approach” (International Journal of Molecular Sciences, 2021)
